Laboratory results published in patent publication US20160068861A1, “METHOD FOR DETECTING PROTEIN STABILITY AND USES THEREOF” (priority 2013, published 2016).

Tests used:
CZ-1 cells = test: MTT detection of cell viability, BTZ-sensitive cell line; format: cell-based, human
Experimental: (§1) CZ-1 cells can be obtained from Hou Jian Laboratory of Shanghai Changzheng Hospital (Hou J, Lin F Y, Zhang B, Zhang L Z, Ding S Q, Establishment and biological characteristics of human multiple myeloma cell line CZ-1. Chinese Medical Journal [2004, 117(1):115-119]); CZ-1/R cell lines was constructed by the inventor's Laboratories, and can be obtained from the inventor's laboratory (http://www.sibcb.ac.cn/PI.asp?id=129).
(§2) Plates were incubated for 24-72 hours. To each well was added 20 ul MTT (3-(4,5-dimethyl-2-thiazole)-2,5-diphenyl tetrazolium bromide) solution, culture was continued for another 4 hrs. To each well was added 150 ul of dimethyl sulfoxide, shaken on a shaker at low speed for 10 mins for thoroughly dissolving the crystals. Absorbance of each well was measured on an enzyme-linked immune detector at OD 490 nm (570 nm).

CZ-1/R cells = test: MTT detection of cell viability, BTZ-resistant cell line; format: cell-based, human
Experimental: as §1, §2

[1] = BTZ in combination with 17-AAG, FIG. 9
[2] = BTZ in combination with C75, FIG. 9

Measured: killing effects (MTT)

CC(C)C[C@H](NC(=O)[C@H](Cc1ccccc1)NC(=O)c1cnccn1)B(O)O [BTZ, Bortezomib]
significant killing effects: CZ-1 cells; [1] | CZ-1 cells; [2] | CZ-1/R cells; [1] | CZ-1/R cells; [2]
